Results as given in article PMC4687525, “Drosophila Avoids Parasitoids by Sensing Their Semiochemicals via a Dedicated Olfactory Circuit” (PLoS Biology, 2015).

Target: T1, Or85f (Drosophila melanogaster, UniProt Q9VHE6)
T1 construct: full-length receptor, UAS-Or85f transgene expressed in mutant ab3A neuron lacking Or22a (delta-halo empty neuron); endogenous Orco; with Odorant receptor coreceptor
T1 sequence (Q9VHE6 1-392): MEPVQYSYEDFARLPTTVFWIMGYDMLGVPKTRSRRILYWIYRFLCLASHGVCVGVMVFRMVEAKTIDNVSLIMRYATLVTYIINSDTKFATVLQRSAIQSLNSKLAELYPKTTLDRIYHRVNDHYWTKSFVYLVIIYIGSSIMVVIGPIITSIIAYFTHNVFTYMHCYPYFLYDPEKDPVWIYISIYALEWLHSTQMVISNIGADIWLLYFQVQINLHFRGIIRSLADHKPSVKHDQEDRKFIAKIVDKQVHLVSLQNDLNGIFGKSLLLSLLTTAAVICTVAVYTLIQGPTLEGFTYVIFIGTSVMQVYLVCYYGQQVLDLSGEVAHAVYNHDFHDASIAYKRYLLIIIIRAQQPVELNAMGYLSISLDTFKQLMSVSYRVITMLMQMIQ
T1 sequence (Q9VNB5 1-486 partner): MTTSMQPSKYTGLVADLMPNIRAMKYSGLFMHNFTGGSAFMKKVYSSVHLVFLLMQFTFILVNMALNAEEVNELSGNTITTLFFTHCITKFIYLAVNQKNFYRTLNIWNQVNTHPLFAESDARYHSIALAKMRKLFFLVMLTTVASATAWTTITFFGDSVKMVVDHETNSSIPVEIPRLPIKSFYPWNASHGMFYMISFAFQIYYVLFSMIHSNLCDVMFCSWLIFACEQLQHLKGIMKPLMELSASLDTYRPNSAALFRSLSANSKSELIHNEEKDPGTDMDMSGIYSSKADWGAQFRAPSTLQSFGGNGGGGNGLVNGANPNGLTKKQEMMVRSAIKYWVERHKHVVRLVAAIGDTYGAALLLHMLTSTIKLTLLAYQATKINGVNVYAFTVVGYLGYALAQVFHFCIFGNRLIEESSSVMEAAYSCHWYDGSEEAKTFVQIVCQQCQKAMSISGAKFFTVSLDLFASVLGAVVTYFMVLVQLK
Assay: GC-coupled single sensillum recording, empty neuron (ab3A)
Format: cell-based
Details: agonist

[1] = reference sample described as racemic

In the case of `CC1=CO[C@@H](O)[C@@H]2[C@@H]1CC[C@@H]2C` (racemic) [1R4aS7S7aS-nepetalactol], the “GC-coupled single sensillum recording, empty neuron (ab3A)” value (“GC-coupled single sensillum recording” below) [1] is reported as 1S4aR7R7aS, 1R4aS7S7aS-nepetalactol and their enantiomers) activated OSNs expressing Or85f.

For `CC1=CO[C@H](O)[C@H]2[C@H](C)CC[C@@H]12` (racemic) [1S4aR7R7aS-nepetalactol], the “GC-coupled single sensillum recording” value [1] was 1S4aR7R7aS, 1R4aS7S7aS-nepetalactol and their enantiomers) activated OSNs expressing Or85f.

For `Cc1cncc2c1CC[C@H]2C` [(R)-actinidine], the “GC-coupled single sensillum recording” value was “When we tested OSNs misexpressing Or85f, they became activated by (R)-actinidine and nepetalactol”.
